Results on six compounds are retold here after PMC3639985, “Differential Ligand Binding Affinities of Human Estrogen Receptor-α Isoforms” (PLoS ONE, 2013).

The term Kd denotes the concentration at which binding is half-saturated. In general, IC50 refers to the point on the concentration scale where inhibition reaches its midpoint. A high value points to weaker potency.

One experiment relates to palmitoylated ER46. As to the kind of experiment: Native gel electrophoresis / Western blot of palmitoylated ER46 in eukaryotic cell-free expression system. The format is biochemical, human. The conditions noted are these: 2-bromopalmitate 100 µM.
A further experiment relates to palmitoylated ER66. As to the kind of experiment: Native gel electrophoresis / Western blot of palmitoylated ER66 in eukaryotic cell-free expression system. It counts as biochemical, human. Conditions: 2-bromopalmitate 100 µM. A general note: A western blot detects proteins with antibodies after separation by electrophoresis.
In the next experiment the target is ER36. Set-up: method as in PMID 20197310. The conditions noted are these: previous studies; cited from earlier work.
The next experiment deals with T1, human ER46 (Homo sapiens, UniProt P03372).
T1 sequence (P03372 1-422 isoform P03372-3): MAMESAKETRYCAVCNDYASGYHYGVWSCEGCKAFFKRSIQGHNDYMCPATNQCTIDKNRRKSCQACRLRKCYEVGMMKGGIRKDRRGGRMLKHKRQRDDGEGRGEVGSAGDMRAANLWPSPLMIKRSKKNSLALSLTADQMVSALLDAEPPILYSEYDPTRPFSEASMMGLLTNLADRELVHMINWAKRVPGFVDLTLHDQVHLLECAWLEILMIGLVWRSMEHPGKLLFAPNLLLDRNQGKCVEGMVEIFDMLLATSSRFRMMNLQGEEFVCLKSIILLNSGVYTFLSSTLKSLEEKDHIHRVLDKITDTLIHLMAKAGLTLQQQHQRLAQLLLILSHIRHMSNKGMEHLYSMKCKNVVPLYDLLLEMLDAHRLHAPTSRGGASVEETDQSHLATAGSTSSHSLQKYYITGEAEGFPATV
In words: Competitive [3H]-17β-estradiol ligand binding assay, ER46.

In the next experiment the target is T2, human ER66 (Homo sapiens, UniProt P03372).
T2 sequence (P03372 1-595): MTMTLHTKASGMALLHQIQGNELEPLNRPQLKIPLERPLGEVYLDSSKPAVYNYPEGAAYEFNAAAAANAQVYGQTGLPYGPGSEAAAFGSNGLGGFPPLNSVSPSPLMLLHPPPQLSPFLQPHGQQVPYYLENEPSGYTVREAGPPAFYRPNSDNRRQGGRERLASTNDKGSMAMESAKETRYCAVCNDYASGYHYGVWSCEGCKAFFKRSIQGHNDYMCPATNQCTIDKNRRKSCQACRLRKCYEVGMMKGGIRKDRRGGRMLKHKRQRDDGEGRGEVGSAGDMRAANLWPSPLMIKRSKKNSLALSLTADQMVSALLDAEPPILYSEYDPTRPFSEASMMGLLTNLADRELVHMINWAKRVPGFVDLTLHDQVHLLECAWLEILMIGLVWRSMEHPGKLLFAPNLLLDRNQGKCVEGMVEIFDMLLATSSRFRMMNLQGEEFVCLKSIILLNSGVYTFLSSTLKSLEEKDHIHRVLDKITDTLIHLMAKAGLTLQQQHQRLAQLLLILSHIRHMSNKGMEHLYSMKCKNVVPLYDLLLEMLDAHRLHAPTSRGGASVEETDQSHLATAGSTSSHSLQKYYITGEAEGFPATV
As to the kind of experiment: Competitive [3H]-17β-estradiol ligand binding assay, ER66.

The test system of another experiment is ERα over ERβ. The conditions noted are these: cited from earlier work.
Where [1] appears, read: ratio of IC50 values of 17β-estradiol and compound, 17β-estradiol set at 100.

Where two headings read alike, the source gives them in different places.

For `CCCCCCCCCCCCCCC(Br)C(=O)O` (stereo not drawn) [2-bromopalmitate, 2-bromohexadecanoic acid], the “expression of palmitoylated ER46” value in the experiment on palmitoylated ER46 was “abolished”. Moreover, in the experiment with palmitoylated ER66, the “expression of palmitoylated ER66” value is listed as “abolished”.
As to `C[C@]12CC[C@@H]3c4ccc(O)cc4CC[C@H]3[C@@H]1CC[C@@H]2O` [17β-estradiol], the Kd at ER36 was 0.0022 µM.
As for `O=c1c(-c2ccc(O)cc2)coc2cc(O)ccc12` [Daidzein, daidzein], at human ER46 (setting [1]), the “RBA ER46” value was 0.002. In addition, the “RBA ER66” value on human ER66 (setting [1]) stood at 0.003.
With `Oc1ccc(-c2c(-c3ccccc3)nn3c(C(F)(F)F)cc(C(F)(F)F)nc23)cc1` [PHTPP, 4-[2-phenyl-5,7-bis(trifluoromethyl)pyrazolo[1,5-a]pyrimidin-3-yl]phenol], the 50% inhibitory concentration (IC50) amounted to 3.33 µM at human ER46 and 1.33 µM at human ER66. Moreover, at human ER46, the “RBA ER46” value was found to be 0.001. Further, on human ER66 (setting [1]), the “RBA ER66” value worked out at 0.003.
On to `CCCc1c(-c2ccc(O)cc2)nn(-c2ccc(O)cc2)c1-c1ccc(O)cc1` [PPT, propylpyrazole triol], for which the “RBA ER46” value on human ER46 (setting [1]) was determined as 23016. Moreover, on human ER66 (setting [1]), the “RBA ER66” value amounted to 42052.
Take “methyl-piperidino-pyrazole dihydrochloride [MPP]”: at human ER46, the “RBA ER46” value is on record as 0.498 and the “higher affinity for ER46 when compared to ICI 182,780” value is reported as “four-fold”. Further, at human ER66, the “RBA ER66” value is on record as 0.305. For the same compound, the “selectivity for ERα over ERβ” value in the experiment on ERα over ERβ is reported as 200 fold.
